Read-outs that look alike come from different tables or passages of the source.
Columns and labels:
[1] = test system: Promonocytic cell line (U937); assay: Incubation of CD33+ promonocytic cell line U937 with CA/PCQ, viable cell count; assay type: cell-based
Experimental: Culture of Promonocytic cell line U937. […] This cell line is CD33^+. Incubation of CD33^+ cell line U937 with CA. […] Cells were then washed and counted for viability.

[2] = test system: Erythroleukemic cell line (K562); assay: Incubation of CD33- erythroleukemic cell line K562 with CA/PCQ, viable cell count; assay type: cell-based; settings: for inhibition at 50 µg/mL: K562, 50.0 μg/ml; for inhibition at 100 µg/mL: K562, 100.0 μg/ml
Text: This cell line was collected from American Type Culture Collection (ATCC), VA, USA. This cell line is […]. […] Cells were then washed and counted for viability.

[3] = test system: Molt 4 (T lymphoid cell line); assay: Growth inhibition of T-lymphoid cell line Molt-4 by CA; assay type: cell-based
Text: Culture of T-Lymphoid cell line Molt-4. This cell line was obtained from American Type culture collection (ATCC), VA, USA and grown in vitro as described for the cell line K562.

[4] = test system: Normal PBMC; assay: Growth inhibition of normal individuals' PBMC by CA/PCQ; assay type: cell-based, human; settings: Homo sapiens; for inhibition at 50 µg/mL: 50.0 μg/ml; for inhibition at 100 µg/mL: 100.0 μg/ml
Text: Preparation of peripheral blood mononuclear cells (PBMC) from normal individuals. Whole blood was collected and mononuclear cells were separated by Ficoll/Hypaque density gradient centrifugation.

[5] = test system: CML patient's leukemic cells; assay: Analysis of cell cycle progression and apoptosis by flow cytometry; assay type: cell-based, human
Experimental: Analysis of cell cycle progression and apoptosis by Flow cytometry PBMC of a CML patient was cultured in RPMI-1640 medium supplemented with 10% […] fetal bovine serum in the presence or absence of CA (100.0 μg/ml) for 48 hr. at 37° C. in 5% CO2. Cells were fixed with 40% ethanol treated with 500 μg/ml Rnase A, and then with 69 μM propidium iodide for analysis of DNA content by Flow Cytometry as described (Mitra et al., Molecular Medicine, 6:527-541, 2000).

[6] = test system: leukemic cells; assay: Biological activity (destruction of leukemic cells) of Piper betel fractions and HPLC peaks; assay type: cell-based; settings: fractions, zones and HPLC peaks of Piper betel leaf extract
Experimental: Collected material was examined for biological activity i.e. destruction of leukemic cells. […] 10 gm of above-mentioned material was loaded on Sephadex LH-20 column and chromatographed with water, water-methanol (1:1) and methanol as eluent. Three different fractions thus obtained from three different solvent systems were separately checked for biological activity. […] The column was equilibrated with methanol-water-acetic acid (23:76:1), flow rate was maintained at 1.0 ml per min and peaks were identified at 280 nm. According to the retention time (RE) different peaks could be divided into three zones, ZA/ZB and ZC (FIG. 1). ZA had 4 major peaks whereas ZB had very small to moderate 10 peaks and ZC had two distinct peaks. It was convenient to observe biological activity of three zones AA, ZB and ZC, which were separately tested on leukemia cells for destructive activity.

[7] = Homo sapiens, 24 h, 1 day, 1 × 10^5 cells per ml per well, read-out: Percentage inhibition of Cell Growth
[8] = Homo sapiens, 48 h, 2 days, 1 × 10^5 cells per ml per well, read-out: Percentage inhibition of Cell Growth
[9] = Homo sapiens, 72 h, 3 days, 1 × 10^5 cells per ml per well, read-out: Percentage inhibition of Cell Growth
[10] = 24 h, Normal PBMC, 1 day, 1 × 10^5 cells per ml per well, read-out: Percentage inhibition of Cell Growth
[11] = 48 h, Normal PBMC, 2 days, 1 × 10^5 cells per ml per well, read-out: Percentage inhibition of Cell Growth
[12] = 72 h, Normal PBMC, 3 days, 1 × 10^5 cells per ml per well, read-out: Percentage inhibition of Cell Growth
[13] = CML patient's leukemic cells, CA 100.0 μg/ml, 2 days

O=C(/C=C/c1ccc(O)c(O)c1)O[C@@H]1C[C@](O)(C(=O)O)C[C@@H](O)[C@H]1O (single isomer, unassigned) [CA, chlorogenic acid or 3-Caffeoyl quinic acid]
inhibition at 20 µg/mL ([1]; Homo sapiens, U-937, U937, 20 μg/ml, 48 hr, 1 × 10^5 cells/ml/well, read-out: Percent inhibition of cell growth after 48 hr of incubation): 90.6%
destruction of cells (in words) ([1]; U937): destroyed
inhibition at 10 µg/mL ([2]; Homo sapiens, 24 h, K562, 10.0 μg/ml, 1 day, 1 × 10^5 cells per ml per well, read-out: Percentage inhibition of Cell Growth): 8%
inhibition at 25 µg/mL ([2]; Homo sapiens, 24 h, K562, 25.0 μg/ml, 1 day, 1 × 10^5 cells per ml per well, read-out: Percentage inhibition of Cell Growth): 20%
inhibition at 50 µg/mL [2, 7]: 28%
inhibition at 100 µg/mL [2, 7]: 84%
inhibition at 10 µg/mL ([2]; Homo sapiens, 48 h, K562, 10.0 μg/ml, 2 days, 1 × 10^5 cells per ml per well, read-out: Percentage inhibition of Cell Growth): 48.1%
inhibition at 25 µg/mL ([2]; Homo sapiens, 48 h, K562, 25.0 μg/ml, 2 days, 1 × 10^5 cells per ml per well, read-out: Percentage inhibition of Cell Growth): 63%
inhibition at 50 µg/mL [2, 8]: 77.8%
inhibition at 100 µg/mL [2, 8]: 98.1%
inhibition at 10 µg/mL ([2]; Homo sapiens, 72 h, K562, 10.0 μg/ml, 3 days, 1 × 10^5 cells per ml per well, read-out: Percentage inhibition of Cell Growth): 85.2%
inhibition at 25 µg/mL ([2]; Homo sapiens, 72 h, K562, 25.0 μg/ml, 3 days, 1 × 10^5 cells per ml per well, read-out: Percentage inhibition of Cell Growth): 92.6%
inhibition at 25 µg/mL ([2]; Homo sapiens, 72 h, K562, 25.0 μg/ml, 3 days, 2×10^5 cells per ml per well, read-out: % Inhibition of cell growth (After 3 days of incubation)): 20%
inhibition at 50 µg/mL [2, 9]: 100%
inhibition at 50 µg/mL ([2]; Homo sapiens, 72 h, 3 days, 2×10^5 cells per ml per well, read-out: % Inhibition of cell growth (After 3 days of incubation)): 28%
inhibition at 100 µg/mL [2, 9]: 100%
inhibition at 10 µg/mL ([2]; Homo sapiens, K562, 10 μg/ml, 48 hr, 1 × 10^5 cells/ml/well, read-out: Percent inhibition of cell growth after 48 hr of incubation): 46.6%
inhibition at 15 µg/mL ([2]; Homo sapiens, K562, 15 μg/ml, 48 hr, 1 × 10^5 cells/ml/well, read-out: Percent inhibition of cell growth after 48 hr of incubation): 93.3%
inhibition at 20 µg/mL ([2]; Homo sapiens, K562, 20 μg/ml, 48 hr, 1 × 10^5 cells/ml/well, read-out: Percent inhibition of cell growth after 48 hr of incubation): 100%
inhibition at 25 µg/mL ([2]; Homo sapiens, K562, 2×10^6/ml/well, 25 μg/ml, read-out: growth inhibition of leukemic cell lines): ≤ 20%
destruction of cells (in words) ([2]; K562): destroyed
destruction of cells (in words) [3]: requires higher dose
inhibition at 50 µg/mL [4, 10]: 6.66%
inhibition at 100 µg/mL [4, 10]: 6.66%
inhibition at 50 µg/mL [4, 11]: 10.3%
inhibition at 100 µg/mL [4, 11]: 17.2%
inhibition at 50 µg/mL [4, 12]: 15.2%
inhibition at 100 µg/mL [4, 12]: 19.5%
inhibition at 25 µg/mL ([4]; 72 h, Normal individual's PBMC, 25.0 μg/ml, 3 days, 2×10^5 cells per ml per well, read-out: % Inhibition of cell growth (After 3 days of incubation)): 1.03%
inhibition at 50 µg/mL ([4]; 72 h, Normal individual's PBMC, 3 days, 2×10^5 cells per ml per well, read-out: % Inhibition of cell growth (After 3 days of incubation)): 1.03%
apoptosis by cell-cycle analysis (in words) ([5]; 100.0 μg/ml, two days of culture): caused apoptosis
percentage of cells in (>2n DNA) [5, 13]: 56.35%
percentage of cells in G0/G1 (2n DNA) [5, 13]: 33.13%
percentage of cells in Sub G0/G1 (apoptotic 2n DNA) [5, 13]: 10.64%
biological activity i.e. destruction of leukemic cells (in words) [6]: Except peak no 6 (Rt 9.16 min) no other peaks had shown detectable activity
